Key:
corn (ZEAMD) = assay: Test H preemergence mixture test (Colby); assay type: in vivo, Zea mays; settings: applied alone, 21 d, mean of three replicates, scale 0-100
Text: (§1) Colby's Equation was used to determine the herbicidal effects expected from the mixtures. Colby's Equation (Colby, S. R. “Calculating Synergistic and Antagonistic Responses of Herbicide Combinations,” Weeds, 15(1), pp 20-22 (1967)) calculates the expected additive effect of herbicidal mixtures and for two active ingredients is of the form: Pa+b=Pa+Pb−(PaPb/100)
(§2) where • Pa+b is the percentage effect of the mixture expected from additive contribution of the individual components: • Pa is the observed percentage effect of the first active ingredient at the same use rate as in the mixture, and • Pb is the observed percentage effect of the second active ingredient at the same use rate as in the mixture. In the following Tables, rates are shown in grams of active ingredient per hectare (g a.i./ha); “Obsd.” is the observed effect. “Exp.” is the expected effect calculated from Colby's Equation.
(§3) This test evaluated the effect of mixtures of compound 80 with several commercial herbicides on four plant species. Seeds of plant species selected from corn (ZEAMD, Zea mays), soybean (GLXMA, Glycine max), waterhemp (common waterhemp, AMATA, Amaranthus rudis), and giant foxtail (SETFA, Setaria faberii) were planted into a silt loam soil and treated preemergence with test chemicals formulated in a non-phytotoxic solvent mixture which included a surfactant and applied using a volume of 281 L/ha. Each treatment was replicated three times. Treated plants and controls were maintained in a greenhouse using supplemental lighting to maintain a photoperiod of about 16 h; daytime and nighttime temperatures were about 24-30° C. and 19-21° C., respectively. Nutrients were applied using a balanced fertilizer applied through the watering system. At 21 d after treatment, all species were compared to controls and visually evaluated. Plant response ratings were calculated as the means of the three replicates, are summarized in Tables H1 through H5, and are based on a scale of 0 to 100 where 0 is no effect and 100 is complete control. A dash (-) response means no test result. The Expected (Exp.) results were calculated using Colby's Equation as described for Test G above.

soybean (GLXMA) = assay: Test H preemergence mixture test (Colby); assay type: in vivo, Glycine max; settings: applied alone, 21 d, mean of three replicates, scale 0-100
Text: as §1, §2, §3

waterhemp (AMATA) = assay: Test H preemergence mixture test (Colby); assay type: in vivo, Amaranthus rudis; settings: applied alone, 21 d, mean of three replicates, scale 0-100
Text: as §1, §2, §3

giant foxtail (SETFA) = assay: Test H preemergence mixture test (Colby); assay type: in vivo, Setaria faberii; settings: applied alone, 21 d, mean of three replicates, scale 0-100
Text: as §1, §2, §3

kochia = assay: Test A pre-/postemergence herbicide test; assay type: in vivo, Kochia scoparia; settings: for Plant response rating, Kochia: 0 to 100 scale
Method in brief: (§4)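 Visual injury ratings, 0 = no effect, 100 = complete control, taken ~10 days after treatment against untreated greenhouse controls. Preemergence: directed soil spray onto seeded loam/sand pots. Postemergence: spray onto plants at one- to two-leaf stage, 2–10 cm tall.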

barnyardgrass [1] = assay: Test A pre-/postemergence herbicide test; assay type: in vivo, Echinochloa crus-galli; settings: for Plant response rating, Barnyardgrass: 0 to 100 scale
Method in brief: as §4

ducksalad [2] = assay: Test C flooded paddy test; assay type: in vivo, Heteranthera limosa; settings: Flood
Method in brief: (§5)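 Visual injury scored against controls after 13 to 15 days in the greenhouse, using 0 (no effect) to 100 (complete control). Test compounds went straight into paddy water held 3 cm above the soil surface on 2-leaf-stage plants, with that flood depth maintained for the whole test.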

pigweed = assay: Test A pre-/postemergence herbicide test; assay type: in vivo, Amaranthus retroflexus; settings: for Plant response rating, Pigweed: 0 to 100 scale
Method in brief: as §4

rice [3] = assay: Test B flooded paddy test; assay type: in vivo, Oryza sativa; settings: 1000 g ai/ha, Flood; scale of 0 to 100 where 0 is no effect and 100 is complete control
Method in brief: (§6)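 In-water application to pots flooded 3 cm deep, plants at 2-leaf stage. Held in greenhouse 13–15 days at constant flood depth. Scored 0–100 by eye against controls.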

blackgrass = assay: Test A postemergence herbicide test; assay type: in vivo, Alopecurus myosuroides
Method in brief: (§7)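 Injury was rated visually about 10 days after treatment on a 0 (no effect) to 100 (complete control) scale, compared with untreated plants. Test chemicals were sprayed postemergence onto greenhouse plants 2–10 cm high at one to two leaves, grown in a loam–sand blend.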

ragweed = assay: Test A pre-/postemergence herbicide test; assay type: in vivo, Ambrosia elatior; settings: for Plant response rating, Ragweed: 0 to 100 scale
Method in brief: as §4

ryegrass, Italian = assay: Test A pre-/postemergence herbicide test; assay type: in vivo, Lolium multiflorum; settings: for Plant response rating, Ryegrass, Italian: 0 to 100 scale
Method in brief: as §4

barnyardgrass [4] = assay: Test B flooded paddy test; assay type: in vivo, Echinochloa crus-galli; settings: 1000 g ai/ha, Flood; scale of 0 to 100 where 0 is no effect and 100 is complete control
Method in brief: as §6

giant foxtail = assay: Test A pre-/postemergence herbicide test; assay type: in vivo, Setaria faberii; settings: for Plant response rating, Foxtail, Giant: 0 to 100 scale
Method in brief: as §4

wheat = assay: Test A pre-/postemergence herbicide test; assay type: in vivo, Triticum aestivum; settings: Postemergence
Method in brief: as §4

sedge, umbrella [5] = assay: Test C flooded paddy test; assay type: in vivo, Cyperus difformis; settings: Flood
Method in brief: as §5

sedge, umbrella [6] = assay: Test B flooded paddy test; assay type: in vivo, Cyperus difformis; settings: 1000 g ai/ha, Flood; scale of 0 to 100 where 0 is no effect and 100 is complete control
Method in brief: as §6

corn = assay: Test A pre-/postemergence herbicide test; assay type: in vivo, Zea mays; settings: Postemergence
Method in brief: as §4

barnyardgrass [7] = assay: Test C flooded paddy test; assay type: in vivo, Echinochloa crus-galli; settings: Flood
Method in brief: as §5

rice [8] = assay: Test C flooded paddy test; assay type: in vivo, Oryza sativa; settings: Flood
Method in brief: as §5

galium = assay: Test A postemergence herbicide test; assay type: in vivo, Galium aparine
Method in brief: as §7

ducksalad [9] = assay: Test B flooded paddy test; assay type: in vivo, Heteranthera limosa; settings: 1000 g ai/ha, Flood; scale of 0 to 100 where 0 is no effect and 100 is complete control
Method in brief: as §6

[10] = 125 g ai/ha, visual rating, 0 no effect, 100 complete control, approximately 10 days, preemergence
[11] = Postemergence, 125 g ai/ha, 0 is no effect, 100 is complete control
[12] = preemergence, 500 g ai/ha, 0 is no effect and 100 is complete control
[13] = 125 g ai/ha, scale of 0 to 100 where 0 is no effect and 100 is complete control, 13 to 15 days
[14] = 250 g ai/ha, scale of 0 to 100 where 0 is no effect and 100 is complete control, 13 to 15 days
[15] = 125 g ai/ha, 0 to 100 scale, 0 is no effect, 100 is complete control

## CC(C)N(C)S(=O)(=O)NC(=O)c1cc(-n2c(=O)cc(C(F)(F)F)n(C)c2=O)c(F)cc1Cl [Saflufenacil]
Corn (ZEAMD); 1 g a.i./ha
  ZEAMD Obsd.: 20
Corn (ZEAMD); 31 g a.i./ha
  ZEAMD Obsd.: 0
Soybean (GLXMA); 1 g a.i./ha
  GLXMA Obsd.: 0
Soybean (GLXMA); 31 g a.i./ha
  GLXMA Obsd.: 13
Waterhemp (AMATA); 1 g a.i./ha
  AMATA Obsd.: 0
Waterhemp (AMATA); 31 g a.i./ha
  AMATA Obsd.: 83
Giant foxtail (SETFA); 1 g a.i./ha
  SETFA Obsd.: 0
Giant foxtail (SETFA); 31 g a.i./ha
  SETFA Obsd.: 23

## CC(C)(C)c1cccc(C2CNC(=O)C2C(=O)Nc2cccc(F)c2F)c1 (racemic) [Compound 200]
kochia; [10]
  Plant response rating, Kochia: 0
kochia; [11]
  Plant response rating, Kochia: 0
kochia; Postemergence, 500 g ai/ha
  Kochia plant response rating (0 to 100 scale, 0 is no effect, 100 is complete control): 0
kochia; [12]
  Plant response rating, Kochia: 0
Barnyardgrass [1]; [10]
  Plant response rating, Barnyardgrass: 60
Barnyardgrass [1]; [11]
  Plant response rating, Barnyardgrass: 70
Barnyardgrass [1]; Postemergence, 500 g ai/ha
  Barnyardgrass plant response rating (0 to 100 scale, 0 is no effect, 100 is complete control): 90
Barnyardgrass [1]; [12]
  Plant response rating, Barnyardgrass: 90
Ducksalad [2]; [13]
  Plant response rating, Ducksalad: 70
Ducksalad [2]; [14]
  Plant response rating, Ducksalad: 70
Ducksalad [2]; 500 g ai/ha, scale 0 to 100
  Plant response rating, Ducksalad: 100
Ducksalad [2]; 1000 g ai/ha, scale 0 to 100
  Plant response rating, Ducksalad: 100
pigweed; [10]
  Plant response rating, Pigweed: 0
pigweed; [11]
  Plant response rating, Pigweed: 0
pigweed; Postemergence, 500 g ai/ha
  Pigweed plant response rating (0 to 100 scale, 0 is no effect, 100 is complete control): 0
pigweed; [12]
  Plant response rating, Pigweed: 0
Rice [3]
  Plant response rating, Rice: 15
blackgrass; [15]
  Plant response rating, Blackgrass: 0
blackgrass; 500 g ai/ha
  Blackgrass plant response rating (0 to 100 scale, 0 is no effect, 100 is complete control): 0
ragweed; [10]
  Plant response rating, Ragweed: 0
ragweed; [11]
  Plant response rating, Ragweed: 0
ragweed; Postemergence, 500 g ai/ha
  Ragweed plant response rating (0 to 100 scale, 0 is no effect, 100 is complete control): 0
ragweed; [12]
  Plant response rating, Ragweed: 0
ryegrass, Italian; [10]
  Plant response rating, Ryegrass, Italian: 0
ryegrass, Italian; [11]
  Plant response rating, Ryegrass, Italian: 0
ryegrass, Italian; Postemergence, 500 g ai/ha
  Ryegrass, Italian plant response rating (0 to 100 scale, 0 is no effect, 100 is complete control): 0
ryegrass, Italian; [12]
  Plant response rating, Ryegrass, Italian: 0
Barnyardgrass [4]
  Plant response rating, Barnyardgrass: 85
Giant foxtail; [10]
  Plant response rating, Foxtail, Giant: 30
Giant foxtail; [11]
  Plant response rating, Foxtail, Giant: 20
Giant foxtail; Postemergence, 500 g ai/ha
  Foxtail, Giant plant response rating (0 to 100 scale, 0 is no effect, 100 is complete control): 40
Giant foxtail; [12]
  Plant response rating, Foxtail, Giant: 80
wheat; [15]
  Plant response rating, Wheat: 0
wheat; 500 g ai/ha
  Wheat plant response rating (0 to 100 scale, 0 is no effect, 100 is complete control): 20
sedge, umbrella [5]; [13]
  Plant response rating, Sedge, Umbrella: 0
sedge, umbrella [5]; [14]
  Plant response rating, Sedge, Umbrella: 0
sedge, umbrella [5]; 500 g ai/ha, scale 0 to 100
  Plant response rating, Sedge, Umbrella: 0
sedge, umbrella [5]; 1000 g ai/ha, scale 0 to 100
  Plant response rating, Sedge, Umbrella: 0
sedge, umbrella [6]
  Plant response rating, Sedge, Umbrella: 0
corn; [15]
  Plant response rating, Corn: 0
corn; 500 g ai/ha
  Corn plant response rating (0 to 100 scale, 0 is no effect, 100 is complete control): 20
Barnyardgrass [7]; [13]
  Plant response rating, Barnyardgrass: 15
Barnyardgrass [7]; [14]
  Plant response rating, Barnyardgrass: 25
Barnyardgrass [7]; 500 g ai/ha, scale 0 to 100
  Plant response rating, Barnyardgrass: 40
Barnyardgrass [7]; 1000 g ai/ha, scale 0 to 100
  Plant response rating, Barnyardgrass: 55
Rice [8]; [13]
  Plant response rating, Rice: 0
Rice [8]; [14]
  Plant response rating, Rice: 0
Rice [8]; 500 g ai/ha, scale 0 to 100
  Plant response rating, Rice: 0
Rice [8]; 1000 g ai/ha, scale 0 to 100
  Plant response rating, Rice: 0
galium; [15]
  Plant response rating, Galium: 0
galium; 500 g ai/ha
  Galium plant response rating (0 to 100 scale, 0 is no effect, 100 is complete control): 0
Ducksalad [9]
  Plant response rating, Ducksalad: 95

— US10294202B2, “Pyrrolidinones as herbicides” (FMC Corporation, priority 2013, dated 2019)
